Results on 24 molecules are retold here after patent US7902195B2, “Pyridine [3,4-b] pyrazinones” (Pharmacia & Upjohn Company LLC, priority 2006, dated 2011).

The target of this assay is T1, PDE5 enzyme isolated from human platelets (Homo sapiens, UniProt O76074).
T1 construct: The PDE5 enzyme for use in the assay can be obtained from human platelets; from tissue; host or cells: human platelets
In words: Alternative human platelet PDE5 enzyme inhibition scintillation proximity assay (Method 2). The format is biochemical. The conditions noted are these: cGMP substrate 50 nM, 60 minutes at room temperature. The source says: The IC50 of a test compound can be measured using an in vitro assay using PDE5 enzyme isolated from human platelets. The IC50 is the concentration of test compound required to inhibit the hydrolysis of cGMP to GMP by the PDE5 enzyme by 50% relative to the activity of uninhibited controls. The PDE5 enzyme for use in the assay can be obtained from human platelets by appropriate modification of the method of Thompson, W J et al.; Biochemistry 18(23), 5228-5237, 1979, as described by Ballard S A et al.; J. Urology 159(6), 2164-2171, 1998. The PDE5 enzyme so obtained can be used to catalyze the hydrolysis of [^3H]cGMP (Amersham Biosciences) to 5′ nucleotide [^3H]GMP. The [^3H]GMP binds to yttrium silicate SPA beads (Amersham Biosciences) and is detected by scintillation counting. More specifically, the effect of a test compound at different concentrations can be evaluated in the assay by contacting the compound with a fixed amount of PDE5 enzyme in the presence of substrate (cGMP […] in a 3:1 ratio unlabelled to [^3H]-labeled). Scintillation counting can be used as described above to determine relative PDE5 enzyme activity. The inhibition of PDE5 enzyme activity is then calculated relative to total PDE5 enzyme activity of uninhibited controls.
Method 2: Alternative Human Platelet PDE5 Enzyme Inhibition Scintillation Proximity Assay
PDE5 IC50 Assay: 96-Well Microtiter Plate Format
Buffer A: 20 mM Tris-HCl, 5 mM MgCl2, pH 7.4
Buffer B: 2 mg/ml BSA in Buffer A (enzyme buffer)
cGMP substrate: Final concentration of 50 nM in assay
The amount of ^3H-labeled substrate added depends upon the specific activity of [^3H]cGMP, and it is diluted in Buffer A.
PDE enzyme: Prepared in Buffer B. The dilution factor is determined by enzyme activity.
SPA beads: 4 mg/ml suspension prepared in dH2O.
Stocks of standard and test compound are prepared at 2 mM in 100% DMSO. The test compound is serially diluted in a dilution plate using an 8-point ⅕ log dilution format such that the starting concentration in the assay is 2 μM for an initial IC50 screen. 27 μl of Buffer A are added to the wells of the assay plates. From the dilution plate, 3 μl of diluted compound is delivered in duplicate or 3 μl of 100% DMSO (for positive and negative controls) are added. 30 μl of enzyme are added. For the negative control wells, Buffer B is substituted in place of the enzyme. 30 μl of labeled substrate are added to all wells.
After incubating for 60 minutes at room temperature, the reaction is stopped with the addition of 30 μl of the yttrium silicate beads. These beads are dense and require constant agitation while being added to the plate. The plates are sealed and shaken on a plate shaker for fifteen minutes to allow the beads to bind the GMP product.
After allowing the beads to settle for 30 minutes, plates are read on a NXT TopCount scintillation counter and the data are analyzed as follows. Percent inhibition values are calculated using the means of the 0% and 100% controls on each plate. The estimates of the 4-parameters of the logistic, sigmoid dose-response model are then calculated using the well-level percent inhibition value for the compound. The formula for the four-parameter logistic model may be expressed as Y=((a−d)/(1+(X/c)^b))+d, where Y is the response, X is the concentration, a is the lower asymptote (minimum response), d is the upper asymptote (maximum response), c is the model IC50 (in the same units as X), and b is the slope (as described in De Lean, A., P. J. Munson, and D. Rodbard (“Simultaneous analysis of families of sigmoidal curves: application to bioassay, radioligand assay, and physiological dose-response curves.” Am. J. Physiol. 235(2): E97-E102, 1978). These estimates are used to calculate the concentration that corresponds to 50% inhibition.
Compounds were tested in accordance with Method 2 above yielding the IC50 values described in Table C.
For orientation: Scintillation proximity formats need no separation of bound from free tracer.
By IC50 is commonly meant the midpoint of a concentration-inhibition curve. In turn, “7-(4-(dimethylamino)-2-methylphenyl)-3-(4-(2-hydroxyethyl)piperazin-1-yl)-1-(2-propoxyethyl)pyrido[3,4-b]pyrazin-2(1H)-one [Example 15]” registered an IC50 of 1190 nM. Take `CCCOCCn1c(=O)c(N2CCNCC2)nc2cnc(-c3ccc(OC)nc3)cc21` [Example 1, 7-(6-methoxypyridin-3-yl)-3-(piperazin-1-yl)-1-(2-propoxyethyl)pyrido[3,4-b]pyrazin-2(1H)-one]: half-maximal inhibition (IC50) was put at 3.28 nM. In turn, `CCCOCCn1c(=O)c(N2C[C@H]3C[C@@H]2CN3)nc2cnc(-c3ccc(OC)nc3)cc21` [Example 2, 3-[(1R,4R)-2,5-diazabicyclo[2.2.1]hept-2-yl]-7-(6-methoxypyridin-3-yl)-1-(2-propoxyethyl)pyrido[3,4-b]pyrazin-2(1H)-one] showed an IC50 of 2.38 nM. `CCCOCCn1c(=O)c(N2CCOCC2)nc2cnc(-c3ccc(OC)nc3)cc21` [Example 3, 7-(6-methoxypyridin-3-yl)-3-morpholin-4-yl-1-(2-propoxyethyl)pyrido[3,4-b]pyrazin-2(1H)-one] came in with an IC50 of 1.01 nM.

Turning to `CCCOCCn1c(=O)c(N2CCCC(O)C2)nc2cnc(-c3ccc(OC)nc3)cc21` (stereo not drawn) [Example 4, 3-(3-hydroxypiperidin-1-yl)-7-(6-methoxypyridin-3-yl)-1-(2-propoxyethyl)pyrido[3,4-b]pyrazin-2(1H)-one], inhibition was half-maximal at 0.225 nM (IC50).

`CCCOCCn1c(=O)c(N2CCN(CCO)CC2)nc2cnc(-c3ccc(OC)nc3)cc21` [Example 5, 3-[4-(2-hydroxyethyl)piperazin-1-yl]-7-(6-methoxypyridin-3-yl)-1-(2-propoxyethyl)pyrido[3,4-b]pyrazin-2(1H)-one] displayed an IC50 of 0.203 nM.

Take `CCCOCCn1c(=O)c(N2CCCC(CO)C2)nc2cnc(-c3ccc(OC)nc3)cc21` (stereo not drawn) [Example 6, 3-[3-(hydroxymethyl)piperidin-1-yl]-7-(6-methoxypyridin-3-yl)-1-(2-propoxyethyl)pyrido[3,4-b]pyrazin-2(1H)-one]: the IC50 was 0.313 nM.

`CCCOCCn1c(=O)c(N2CCN(CC(=O)OC(C)(C)C)CC2)nc2cnc(-c3ccc(OC)nc3)cc21` [Example 7, tert-butyl {4-[7-(6-methoxypyridin-3-yl)-2-oxo-1-(2-propoxyethyl)-1,2-dihydropyrido[3,4-b]pyrazin-3-yl]piperazin-1-yl}acetate] displayed an IC50 of 0.083 nM. This IC50 is about 3.8-fold lower than that of the molecule before. The same measure for `CCCOCCn1c(=O)c(N2CCN(CC(=O)O)CC2)nc2cnc(-c3ccc(OC)nc3)cc21` [Example 8, {4-[7-(6-methoxypyridin-3-yl)-2-oxo-1-(2-propoxyethyl)-1,2-dihydropyrido[3,4-b]pyrazin-3-yl]piperazin-1-yl}acetic acid]: 0.517 nM. `CCCOCCn1c(=O)c(N2CCN(CCO)[C@@H](C)C2)nc2cnc(-c3ccc(OC)nc3)cc21` [Example 9, 3-[(3S)-4-(2-hydroxyethyl)-3-methylpiperazin-1-yl]-7-(6-methoxypyridin-3-yl)-1-(2-propoxyethyl)pyrido[3,4-b]pyrazin-2(1H)-one] gave an IC50 of 0.248 nM. The result for `CCCOCCn1c(=O)c(N2CC(C)N(CCCO)C(C)C2)nc2cnc(-c3ccc(OC)nc3)cc21` (stereo not drawn) [Example 10, 3-[4-(3-hydroxypropyl)-3,5-dimethylpiperazin-1-yl]-7-(6-methoxypyridin-3-yl)-1-(2-propoxyethyl)pyrido[3,4-b]pyrazin-2(1H)-one] reads 0.193 nM; that for `CCCOCCn1c(=O)c(N2CCN(CCCO)CC2)nc2cnc(-c3ccc(OC)nc3)cc21` [Example 11, 3-[4-(3-hydroxypropyl)piperazin-1-yl]-7-(6-methoxypyridin-3-yl)-1-(2-propoxyethyl)pyrido[3,4-b]pyrazin-2(1H)-one], 0.177 nM; that for `CCCOCCn1c(=O)c(N2CCCN(CCO)CC2)nc2cnc(-c3ccc(OC)nc3)cc21` [Example 12, 3-[4-(2-hydroxyethyl)-1,4-diazepan-1-yl]-7-(6-methoxypyridin-3-yl)-1-(2-propoxyethyl)pyrido[3,4-b]pyrazin-2(1H)-one], 0.721 nM. In turn, `CCCOCCn1c(=O)c(N2CCN(CCO)CC2)nc2cnc(-c3ccc(Cl)cc3)cc21` [Example 13, 7-(4-chlorophenyl)-3-(4-(2-hydroxyethyl)piperazin-1-yl)-1-(2-propoxyethyl)pyrido[3,4-b]pyrazin-2(1H)-one] registered an IC50 of 1.35 nM. As to `CCCOCCn1c(=O)c(N2CCN(CCO)CC2)nc2cnc(-c3ccc(O)cc3)cc21` [Example 14, 3-(4-(2-hydroxyethyl)piperazin-1-yl)-7-(4-hydroxyphenyl)-1-(2-propoxyethyl)pyrido[3,4-b]pyrazin-2(1H)-one], the IC50 is 832 nM. As to `CCCOCCn1c(=O)c(N2CCN(CCO)CC2)nc2cnc(-c3cccc(Cl)c3)cc21` [Example 16, 7-(3-chlorophenyl)-3-(4-(2-hydroxyethyl)piperazin-1-yl)-1-(2-propoxyethyl)pyrido[3,4-b]pyrazin-2(1H)-one], the IC50 turned out to be 3.34 nM.

In the case of `CCCOCCn1c(=O)c(N2CCN(CCO)CC2)nc2cnc(-c3ccc(OC)cc3)cc21` [Example 17, 3-(4-(2-hydroxyethyl)piperazin-1-yl)-7-(4-methoxyphenyl)-1-(2-propoxyethyl)pyrido[3,4-b]pyrazin-2(1H)-one], the IC50 worked out at 7.71 nM.

`CCCOCCn1c(=O)c(N2CCN(CCO)CC2)nc2cnc(-c3ccc(F)cc3F)cc21` [Example 18, 7-(2,4-difluorophenyl)-3-(4-(2-hydroxyethyl)piperazin-1-yl)-1-(2-propoxyethyl)pyrido[3,4-b]pyrazin-2(1H)-one] yielded an IC50 of 29.9 nM.

The molecule `CCCOCCn1c(=O)c(N2CCN(CCO)CC2)nc2cnc(-c3ccc(S(=O)(=O)CC)cc3)cc21` [Example 19, 7-(4-(ethylsulfonyl)phenyl)-3-(4-(2-hydroxyethyl)piperazin-1-yl)-1-(2-propoxyethyl)pyrido[3,4-b]pyrazin-2(1H)-one] yielded an IC50 of 102 nM. Compared with the last molecule, the IC50 is about 3.4-fold higher. As to `CCCOCCn1c(=O)c(N2CCN(CCO)CC2)nc2cnc(-c3cccc(OC)c3F)cc21` [Example 20, 7-(2-fluoro-3-methoxyphenyl)-3-(4-(2-hydroxyethyl)piperazin-1-yl)-1-(2-propoxyethyl)pyrido[3,4-b]pyrazin-2(1H)-one], the IC50 amounted to 1.59 nM. The molecule `CCCOCCn1c(=O)c(N2CCN(CCO)CC2)nc2cnc(-c3ccc(OC(C)C)cc3)cc21` [Example 21, 3-(4-(2-hydroxyethyl)piperazin-1-yl)-7-(4-isopropoxyphenyl)-1-(2-propoxyethyl)pyrido[3,4-b]pyrazin-2(1H)-one] gave an IC50 of 413 nM. Turning to `CCCOCCn1c(=O)c(N2CCN(CCO)CC2)nc2cnc(-c3cccc4cnccc34)cc21` [Example 22, 3-(4-(2-hydroxyethyl)piperazin-1-yl)-7-(isoquinolin-5-yl)-1-(2-propoxyethyl)pyrido[3,4-b]pyrazin-2(1H)-one], the IC50 is over 2000 nM. For `CCCOCCn1c(=O)c(N2CCN(CCO)CC2)nc2cnc(-c3ccc(CO)cc3)cc21` [Example 23, 3-(4-(2-hydroxyethyl)piperazin-1-yl)-7-(4-(hydroxymethyl)phenyl)-1-(2-propoxyethyl)pyrido[3,4-b]pyrazin-2(1H)-one], 1790 nM corresponded to half-maximal inhibition (IC50). That is a single-digit micromolar value.

The molecule `CCCOCCn1c(=O)c(N2CCN(CCO)CC2)nc2cnc(-c3ccc(OCC)cc3)cc21` [Example 24, 7-(4-ethoxyphenyl)-3-(4-(2-hydroxyethyl)piperazin-1-yl)-1-(2-propoxyethyl)pyrido[3,4-b]pyrazin-2(1H)-one] had an IC50 of 1400 nM.
